The results in this text go back to patent US20060058325A1, “Therapeutic quniazoline derivatives” (AstraZeneca AB, priority 2002, published 2006).

In one assay the target is T1, Aurora-A (Homo sapiens, UniProt O14965).
T1 construct: made in house; host or cells: Spodoptera frugiperda Sf21 insect cells (baculovirus)
T1 sequence (O14965 1-403): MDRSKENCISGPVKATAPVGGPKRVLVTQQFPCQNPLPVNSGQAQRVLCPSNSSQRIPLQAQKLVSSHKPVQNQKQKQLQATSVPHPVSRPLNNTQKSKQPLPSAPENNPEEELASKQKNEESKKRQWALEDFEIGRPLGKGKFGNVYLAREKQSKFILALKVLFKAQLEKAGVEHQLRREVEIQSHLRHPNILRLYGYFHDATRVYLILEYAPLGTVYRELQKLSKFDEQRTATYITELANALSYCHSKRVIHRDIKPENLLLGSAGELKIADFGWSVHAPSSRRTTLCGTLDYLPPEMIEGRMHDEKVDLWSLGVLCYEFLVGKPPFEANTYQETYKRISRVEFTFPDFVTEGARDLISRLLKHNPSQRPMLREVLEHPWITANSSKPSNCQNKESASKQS
The assay is described as follows: In vitro Aurora-A kinase inhibition test. It counts as biochemical.

In the next assay the target is T2, Aurora-B (Homo sapiens, UniProt Q96GD4).
T2 construct: 6-histidine; made in house; host or cells: Spodoptera frugiperda Sf21 insect cells (baculovirus)
As to the kind of experiment: In vitro Aurora-B kinase inhibition test. It counts as biochemical. The settings on record: recombinant Aurora-B, 33P-ATP peptide substrate, 60 minutes room temperature; read-out: concentration giving 50% inhibition of enzyme activity. The text has this: (b) In Vitro Aurora-B Kinase Inhibition Test
This assay determines the ability of a test compound to inhibit serine-threonine kinase activity. DNA encoding Aurora-B may be obtained by total gene synthesis or by cloning. This DNA may then be expressed in a suitable expression system to obtain polypeptide with serine-threonine kinase activity. In the case of Aurora-B, the coding sequence was isolated from cDNA by polymerase chain reaction (PCR) and cloned into the pFastBac system in a manner similar to that described above for Aurora-A (i.e. to direct expression of a 6-histidine tagged Aurora-B protein).
For the large scale expression of Aurora-B kinase activity, Sf21 insect cells were grown at 28° C. in TC100 medium supplemented with 10% foetal calf serum (Viralex) and 0.2% F68 Pluronic (Sigma) on a Wheaton roller rig at 3 r.p.m. When the cell density reached 1.2×10^6 cells ml^−1 they were infected with plaque-pure Aurora-B recombinant virus at a multiplicity of infection of 1 and harvested 48 hours later. All subsequent purification steps were performed at 4° C. […]

The test system of assay [1] is SW620 cells. The assay is described as follows: In vitro cell proliferation assay (BrdU incorporation). In kind it is cell-based. The settings on record: Homo sapiens, SW-620, 48 hours with compound, 2 hour BrdU labelling, read-out: concentration active in test (50% inhibition of BrdU incorporation). The text has this: (c) In Vitro Cell Proliferation Assay
This and other assays can be used to determine the ability of a test compound to inhibit the growth of adherent mammalian cell lines, for example the human tumour cell line SW620 (ATCC CCL-227). This assay determines the ability of at test compound to inhibit the incorporation of the thymidine analogue, 5′-bromo-2′-deoxy-uridine (BrdlD into cellular DNA. SW620 or other adherent cells were typically seeded at 1×10^5 cells per well in L-15 media (GIBCO) plus 5% foetal calf serum, 1% L-glutamine (100 μl /well) in 96 well tissue culture treated 96 well plates (Costar) and allowed to adhere overnight. The following day the cells were dosed with compound (diluted from 10 mM stock in DMSO using L-15 (with 5% FCS, 1% L-glutamine). Untreated control wells and wells containing a compound known to give 100% inhibition of BrdU incorporation were included on each plate. After 48 hours in the presence/absence of test compound the ability of the cells to incorporate BrdU over a 2 hour labelling period was determined using a Boelringer (Roche) Cell Proliferation BrdU ELISA kit (cat. No. 1 647 229) according to manufacturers directions. […] The optical density of the wells was then determined at 690 nm wavelength using a Titertek Multiscan plate reader. […]

For assay [2], the system named is SW620 cells. As to the kind of experiment: In vitro cell cycle analysis assay (FACS DNA content). The settings on record: 24 hours with compound. In kind it is cell-based, human. Here is the method:
(d) In Vitro Cell Cycle Analysis Assay
This assay determines the ability of a test compound to arrest cells in specific phases of the cell cycle. Many different mammalian cell lines could be used in this assay and SW620 cells are included here as an example. SW620 cells were seeded at 7×10^5 cells per T25 flask (Costar) in 5 ml L-15 (5% FCS, 1% L-glutamine). Flasks were then incubated overnight in a humidified 37° C. incubator with 5% CO2. The following day, 5 μl of L-15 (5% FCS, 1% L-glutamine) carrying the appropriate concentration of test compound solubilised in DMSO was added to the flask. A no compound control treatments was also included (0.5% DMSO). The cells were then incubated for a defined time (24 hours) with compound. […]
Each sample was then syringed 10 times using 21-guage needle. The samples were then transferred to LPS tubes and DNA content per cell analysed by Fluorescence activated cell sorting (FACS) using a FACScan flow cytometer (Becton Dickinson). Typically 30,000 events were counted and recorded using CellQuest v1.1 software (Verity Software). Cell cycle distribution of the population was calculated using Modfit software (Verity Software) and expressed as percentage of cells with 2N (G0/G1), 2N-4N (S phase) and with 4N (G2/M) DNA content. […]

The structures appear in SMILES notation.

T2 sequence (Q96GD4 whole entry): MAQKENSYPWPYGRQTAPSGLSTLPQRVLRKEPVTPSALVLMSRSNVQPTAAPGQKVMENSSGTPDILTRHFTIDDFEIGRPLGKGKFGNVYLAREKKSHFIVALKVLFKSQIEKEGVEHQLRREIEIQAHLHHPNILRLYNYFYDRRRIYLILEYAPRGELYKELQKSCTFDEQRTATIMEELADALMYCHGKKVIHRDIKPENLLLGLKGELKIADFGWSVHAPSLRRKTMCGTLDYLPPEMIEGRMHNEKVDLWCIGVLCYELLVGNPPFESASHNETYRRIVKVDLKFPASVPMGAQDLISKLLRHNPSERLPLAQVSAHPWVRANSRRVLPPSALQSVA

Regarding `CCN(CCCOc1cc2ncnc(Nc3cnc(NC(=O)c4ccc(F)c(Cl)c4)nc3)c2cc1OC)CCOP(=O)(O)O` [Compound 24, 2-[(3-{[4-({2-[(3-chloro-4-fluorobenzoyl)amino]pyrimidin-5-yl}amino)-6-methoxyquinazolin-7-yl]oxy}propyl)(ethyl)amino]ethyl dihydrogen phosphate], the IC50 came out at 0.3 nM against Aurora-A, 12.3 nM at Aurora-B and 300 nM in the assay on SW620 cells [1]. Also, the “concentration active in cell cycle analysis test” value with SW620 cells [2] worked out at 1.5 µM.
